{
  "source": "patent US8871715B2",
  "about": "“Use of selenium compounds, especially selenium yeasts for altering cognitive function” (Alltech, Inc., priority 2005, dated 2014)",
  "type_in_all_cases": "in vivo, mouse (male C57BL/6J)",
  "key": {"[1]": {"system": "brain (cerebral cortex) gene expression", "assay": "Gene expression in mouse brain (cerebral cortex, microarray) with dietary selenium vs selenium deficient diet", "conditions": "diet 1 ppm Se for 100 days vs selenium deficient diet", "from_the_text": "(§1) Animal Care. Male C57BL/6J mice were housed singly and started on the experimental diets described below immediately after weaning (21 days of age). The mice were maintained in the Shared Aging Rodent Facility at the William S. Middleton Memorial Veterans Administration Medical Center (Madison, Wis.). Temperature and humidity were maintained at constant levels. Room light was controlled to provide 12-hr cycles of light and dark.\n(§2) Experimental diets were created by Harlan Teklad (Madison, Wis.). Selenium content of the diets was determined by Covance Inc. (Madison, Wis.). Five (5) animals were included in each of the following treatment groups: a diet deficient in selenium (SD); a diet supplemented with selenomethionine (SM, obtained from Sigma, St. Louis, Mo.) such that the final selenium content of the diet was one (1) part per million; a diet supplemented with sodium selenite (SS, Sigma) such that the final concentration of selenium in this diet was one (1) part per million; or a diet supplemented with the yeast selenium SEL-PLEX (SP, Alltech, Lexington, Ky.), such that the final concentration of selenium in this diet was one (1) part per million. SEL-PLEX. Mice were provided with water and their respective diet ad libitum for 100 days. Diets were stored at the dark at 4° C. and fresh diet was added to feeder twice weekly.\n(§3) Tissue sample preparation and microarray analysis. Mice were killed at 100 days of age by cervical dislocation. For intestinal expression studies, the intestine was flushed twice with saline solution and small intestine was measured and divided in three equal segments. A 3-cm region of the middle segment of the small intestine corresponding to the jejunum (˜300 mg of tissue) was cut and rinsed again with physiological saline to completely remove contents, flash frozen in liquid nitrogen and stored at −80° C. For brain (e.g., cerebral cortex) studies, the cerebral cortex was separated from the surrounding brain tissue and was flash frozen in liquid nitrogen and stored at −80° C.\n(§4) Total RNA was isolated from using the guanidinium isothiocyanate method of TRIZOL (Life Technologies, Grand Island, N.Y.) and individual samples were used for gene expression profiles. Total RNA was cleaned up by RNeasy Mini kit (Qiagen, Valencia, Calif.). Target RNA was prepared by converting […] total RNA into double-strand cDNA using GeneChip Expression 3′-Amplification Reagents One-Cycle cDNA Synthesis Kit (Affymetrix, Santa Clara, Calif.) with a T7-(dT)24 primer incorporating a T7 RNA polymerase promoter. After cleaning up double-strand cDNA using Genechip Sample Cleanup Module (Affymetrix, Santa Clara, Calif.), biotin-labeled cRNA was synthesized from double-strand cDNA using GeneChip Expression 3′-Amplification Reagents for IVT Labeling (Affymetrix, Santa Clara, Calif.). The biotin-labeled cRNA was cleaned up using Genechip Sample Cleanup Module and was fragmented by heating (35 min at 94° C.).\n(§5) Fifteen (15) μg of cRNA fragments were hybridized (16 h at 45° C.) to Mouse Genome 430 2.0 Array (Affymetrix, Santa Clara, Calif.) using GeneChip Hybridization Oven 640. After hybridization, the gene chips were automatically washed and stained with streptavidin-phycoerythrin biotinylated anti-streptavidin using Affymetrix GeneChip Fluidics Station 450. The DNA chips were scanned with Affymetrix GeneChip Scanner 3000 (Affymetrix, Santa Clara, Calif.) to detect the cell signal intensities by laser. All calculations were performed with Affymetrix GeneChip Operating Software (GCOS) version 1.3 after scanning.\n(§6) • 1. The spreadsheet containing probe set identifiers and signal intensity values was opened in Microsoft Excel (version 11.1.1 for the Macintosh OS-X operating system) and summary statistics were generated (mean signal intensity for each treatment group, standard error of the mean). Two-tailed t-tests (equal variance) were performed for the following treatment groups: SM vs. SD, SS vs. SD, and SP vs. SD. […]"}, "[2]": {"system": "gene expression in the mouse intestine", "assay": "Gene expression in mouse intestine (microarray) with dietary selenium vs selenium deficient diet", "conditions": "diet 1 ppm Se for 100 days vs selenium deficient diet", "from_the_text": "as §1, §2, §3, §4, §5, §6"}, "[3]": {"assay": "Body weight of mice on selenium diets", "from_the_text": "as §1\nExperimental diets were created by Harlan Teklad (Madison, Wis.). Selenium content of the diets was determined by Covance Inc. (Madison, Wis.). […]\nThus, it was an object of the present invention to determine whether compositions and methods of the present invention could alter the expression levels (e.g., mRNA levels) of various genes. One group of genes analyzed were genes classically associated with selenium. As described above, the expression levels of genes were analyzed between mice with and without dietary selenium, or, between mice fed different sources of selenium) (See, e.g., Table 1, below)."}},
  "note": "Marks after values point to notes of the source that are not given here.",
  "data": [
    {"smiles": "C[Se]CC[C@H](N)C(=O)O", "note": "[SeM, selenomethionine]", "values": [
      {"measurement": "CORS-26 expression, fold reduction", "setting": "[1]; cerebral cortex", "value": "no alteration"},
      {"measurement": "Complement component 1, q subcomponent, gamma polypeptide, C1qg expression, FC", "setting": "[1]; cerebral cortex", "value": 1.0, "unit": "fold"},
      {"measurement": "expression of complement component genes (summary in words)", "setting": "[1]; cerebral cortex", "value": "did not provide a statistically significant alteration"},
      {"measurement": "Glutathione Peroxidase 1 gene expression, fold change (FC)", "setting": "[2]", "value": 4.9, "unit": "fold"},
      {"measurement": "Glutathione Peroxidase 3 gene expression, fold change (FC)", "setting": "[2]", "value": 4.6, "unit": "fold"},
      {"measurement": "Glyoxalase 1 (Glo1) expression, fold reduction", "setting": "[2]", "value": "not significantly affected"},
      {"measurement": "Growth arrest and DNA-damage-inducible 45 gamma (Gadd45g) expression, FC", "setting": "[2]", "value": "−1.5", "unit": "fold"},
      {"measurement": "LIM homeobox protein 8 gene (Lhx8) expression, fold upregulation", "setting": "[2]", "value": "not significantly different"},
      {"measurement": "Neurogenin 3 (Neurog3) expression, fold upregulation", "setting": "[2]", "value": "no significant alteration"},
      {"measurement": "Prohibitin (Phb) expression, fold upregulation", "setting": "[2]", "value": 1.6, "unit": "fold"},
      {"measurement": "SelR (Selenoprotein X1) gene expression, fold upregulation", "setting": "[2]", "value": "not significantly affected"},
      {"measurement": "Selenoprotein W (SelW) expression, fold upregulation", "setting": "[2]", "value": "not significantly altered"},
      {"measurement": "Thioredoxin Reductase 1 gene expression, fold increase", "setting": "[2]", "value": 1.8, "unit": "fold"},
      {"measurement": "expression pattern of GST genes (summary in words)", "setting": "[2]", "value": "no alteration"},
      {"measurement": "selenoprotein N1 (Sepn1) gene expression, fold increase", "setting": "[2]", "value": "not significantly affected"},
      {"measurement": "sprouty homolog 2 gene (Spry2) expression, fold reduction", "setting": "[2]", "value": "no alteration"},
      {"measurement": "transforming growth factor beta 2 (TGF-β2) expression, fold upregulation", "setting": "[2]", "value": "not altered"},
      {"measurement": "type II iodothyronine deiodinase (Dio2) expression, fold down-regulation", "setting": "[2]", "value": "no ability to alter"},
      {"measurement": "Gadd45g1p expression in intestinal tissue (in words)", "setting": "[2]; p<0.05", "value": "decreased expression"},
      {"measurement": "body weights of mice", "setting": "[3]; mouse, in vivo", "value": "No significant differences"}
    ]},
    {"smiles": "O=[Se](O)O", "note": "[Sod-sel, sodium selenite]", "values": [
      {"measurement": "Gadd45b expression, FC", "setting": "[1]; brain", "value": "−1.39* fold"},
      {"measurement": "Gadd45g1p (Growth arrest and DNA-damage inducible 45 gamma interacting protein) expression, FC", "setting": "[1]; brain", "value": "−1.12", "unit": "fold"},
      {"measurement": "Gst mu 7 (Gstm7) expression, FC", "setting": "[1]; brain", "value": "−1.25* fold"},
      {"measurement": "Gst pi 1 (Gstp1) expression, FC", "setting": "[1]; brain", "value": 1.02, "unit": "fold"},
      {"measurement": "Gst zeta 1 (Gstz1) expression, FC", "setting": "[1]; brain", "value": "−1.3", "unit": "fold"},
      {"measurement": "Amyloid beta (A4) precursor protein-binding, family A, member 1 (Apba1) expression, FC", "setting": "[1]; cerebral cortex", "value": "−1.41", "unit": "fold"},
      {"measurement": "Amyloid beta (A4) precursor protein-binding, family B, member 1 (Apbb1 or Fe65) expression, FC", "setting": "[1]; cerebral cortex", "value": "−1.32* fold"},
      {"measurement": "Amyloid beta (A4) precursor-like protein (Aplp 1) expression, FC", "setting": "[1]; cerebral cortex", "value": "−1.55* fold"},
      {"measurement": "Cathepsin B expression, FC", "setting": "[1]; cerebral cortex", "value": "−1.13* fold"},
      {"measurement": "Cathepsin D expression, FC", "setting": "[1]; cerebral cortex", "value": "−1.24* fold"},
      {"measurement": "Cathepsin O expression, FC", "setting": "[1]; cerebral cortex", "value": "−1.18", "unit": "fold"},
      {"measurement": "Cathepsin Z expression, FC", "setting": "[1]; cerebral cortex", "value": "−1.30* fold"},
      {"measurement": "Complement component 1, q subcomponent binding protein, C1qbp expression, FC", "setting": "[1]; cerebral cortex", "value": 1.11, "unit": "fold"},
      {"measurement": "Complement component 1, q subcomponent, alpha polypeptide, C1qa expression, FC", "setting": "[1]; cerebral cortex", "value": "−1.18", "unit": "fold"},
      {"measurement": "Complement component 1, q subcomponent, beta polypeptide, expression, FC", "setting": "[1]; cerebral cortex", "value": "−1.35", "unit": "fold"},
      {"measurement": "Complement component 1, q subcomponent, gamma polypeptide, C1qg expression, FC", "setting": "[1]; cerebral cortex", "value": "−1.07", "unit": "fold"},
      {"measurement": "Complement component 1, r subcomponent, C1r expression, FC", "setting": "[1]; cerebral cortex", "value": "−1.29", "unit": "fold"},
      {"measurement": "Junb expression, FC", "setting": "[1]; cerebral cortex", "value": "−1.59", "unit": "fold"},
      {"measurement": "Nicastrin expression, FC", "setting": "[1]; cerebral cortex", "value": "−1.67* fold"},
      {"measurement": "Presenilin 1 expression, FC", "setting": "[1]; cerebral cortex", "value": "−1.11", "unit": "fold"},
      {"measurement": "Cu chaperone for SOD (CCS) expression, fold enhancement", "setting": "[2]", "value": 1.28, "unit": "fold"},
      {"measurement": "Glutathione Peroxidase 1 gene expression, fold change (FC)", "setting": "[2]", "value": 4.1, "unit": "fold"},
      {"measurement": "Glutathione Peroxidase 3 gene expression, fold change (FC)", "setting": "[2]", "value": 3.5, "unit": "fold"},
      {"measurement": "Glutathione S-transferase, alpha 3 (Gsta3) expression, FC", "setting": "[2]", "value": "−2.3", "unit": "fold"},
      {"measurement": "Glutathione S-transferase, mu 1 (Gstm1) expression, FC", "setting": "[2]", "value": "−2.4", "unit": "fold"},
      {"measurement": "Glutathione S-transferase, mu 2 (Gstm2) expression, FC", "setting": "[2]", "value": "−2.1", "unit": "fold"},
      {"measurement": "Glutathione S-transferase, mu 3 (Gstm3) expression, FC", "setting": "[2]", "value": "−2.7", "unit": "fold"},
      {"measurement": "Glutathione S-transferase, theta 2 (Gstt2) expression, FC", "setting": "[2]", "value": "−1.3", "unit": "fold"},
      {"measurement": "Growth arrest and DNA-damage-inducible 45 gamma (Gadd45g) expression, FC", "setting": "[2]", "value": "−2.0", "unit": "fold"},
      {"measurement": "SOD1 expression, fold enhancement", "setting": "[2]", "value": 1.92, "unit": "fold"},
      {"measurement": "SelR (Selenoprotein X1) gene expression, fold upregulation", "setting": "[2]", "value": 1.3, "unit": "fold"},
      {"measurement": "Selenoprotein W (SelW) expression, fold upregulation", "setting": "[2]", "value": 5.1, "unit": "fold"},
      {"measurement": "Thioredoxin Reductase 1 gene expression, fold increase", "setting": "[2]", "value": 1.7, "unit": "fold"},
      {"measurement": "Type 1 iodothyronine deiodinase expression level, fold increase", "setting": "[2]", "value": 2.8, "unit": "fold"},
      {"measurement": "body weights of mice", "setting": "[3]; diets with 1 ppm Se vs selenium deficient diet, FIG. 1", "value": "No significant differences"}
    ]}
  ]
}
